Reference: PMC11141866, “Pyrimidine depletion enhances targeted and immune therapy combinations in acute myeloid leukemia” (JCI Insight, 2024)
Values joined by “and” are separate entries in the source; they are usually repeats but may differ in a detail not shown here. Identical values can stand only once. Values belong to the molecule of their own block, whether it stands above or below them.

What was measured:
[1] = system: HL-60 disseminated CDX model; test: HL-60 CDX synergy with decitabine; format: in vivo, NCG mice; details: Decitabine 0.4 mpk IP (4on/10off), HOSU53 10 mpk p.o. qd, or both; flag 0 = censored at day 82
Protocol: Female 8- to 12-week-old female NCG mice were engrafted with 1 × 10^7 cells via tail vein i.v. injection. At 14 days after engraftment (day 1 of treatment), mice (n = 10/arm) were randomized to receive p.o. qd and i.p. vehicle (p.o. qd 40% HPβCD and 4 on/10 off i.p. PBS), 10 mg/kg HOSU-53, i.p. 0.4 mg/kg decitabine on a 4-day on/10-day off cycle, or their combination till moribundity or end of study day 82.

[2] = system: MOLM-13; test: MTS proliferation assay, MOLM-13; format: cell-based; details: Homo sapiens, MOLM-13, 96 h, read-out: IC50 (MTS proliferation)
Protocol: (§1) A total of 10,000–20,000 cells from different AML lines or 50,000–75,000 cells of primary AML blasts were treated in a 96-well plate for 72 hours or 96 hours at 37°C, 5% CO2. CellTiter 96 Aqueous MTS reagent (Promega) was added to cells followed by a 3-hour incubation at 37°C, 5% CO2. The absorbance was measured at 490 nm using DTX 880 plate reader, and the IC50 was calculated using GraphPad Prism.

[3] = system: OCI-AML3; test: MTS proliferation assay, OCI-AML3; format: cell-based; details: Homo sapiens, OCI-AML-3, 96 h, read-out: IC50 (MTS proliferation)
Protocol: as §1

[4] = system: THP1; test: MTS proliferation assay, THP1; format: cell-based; details: Homo sapiens, THP-1, 96 h, read-out: IC50 (MTS proliferation)
Protocol: as §1

[5] = system: U937; test: MTS proliferation assay, U937; format: cell-based; details: Homo sapiens, U-937, 96 h, read-out: IC50 (MTS proliferation)
Protocol: as §1

[6] = system: Kasumi; test: MTS proliferation assay, Kasumi; format: cell-based; details: Homo sapiens, 96 h, read-out: IC50 (MTS proliferation)
Protocol: as §1

[7] = system: primary AML patient samples; test: Flow cytometry viability, primary AML long-term culture; format: cell-based, human; details: 500nM
Protocol: (§2) Cells were thawed in 50% FBS RPMI and then cultured in StemSpan (StemCell Technologies) media supplemented with human FLT3L, SCF, GM-CSF, G-CSF, IL-3, IL-6, TPO, and EPO cytokines for 7 days (LTC).
(§3) After 72 hours or 7 days of treatment of DHODHi, cells were collected and washed with PBS, blocked with human Fc block (BioLegend), and stained with antibodies for 30 minutes on ice. Antibodies were washed off and cells resuspended in FACS buffer (2% FBS, 2 mM NaN3, Dulbecco’s PBS) for analysis using BD LSRFortessa or Cytek Aurora spectral flow cytometer. Live/dead exclusion was done using LIVE/DEAD Fixable Near-IR (Invitrogen). All antibodies were purchased from BioLegend except CD47, which was purchased from BD Biosciences: CD11b clone M1/70, CD38 clone HIT2, CD14 clone M5E2, CD47 clone B6H12, CD33 clone WM53, CD3 clone UCHT1, CD19 clone HIB19, and CD45 clone HI30.
Supplemental Figure S.2. […] A).
Flow cytometry analysis of viable primary AML patient samples (n=10) treated in vitro for seven days
(long term culture, LTC). […]

[8] = system: primary AML samples; test: Flow cytometry CD38 surface expression, primary AML samples; format: cell-based, human; details: 500nM
Protocol: as §2, §3

[9] = system: primary AML patient samples; test: Flow cytometry CD47 surface expression, primary AML samples; format: cell-based, human; details: 500nM
Protocol: as §2, §3
Supplemental Figure S.8. DHODHi modulates CD47 surface antigen expression. A) Representative flow cytometry overlay histogram plot for CD47 surface expression in MV4-11 cell line following a 72- […]
supplementation (experiment was done five independent times). B) Flow cytometry analysis of CD47 surface expression in primary AML patient samples (n=8-10) treated in vitro for seven days (long term culture, LTC). Data is shown as mean florescent intensity (MFI) of CD47 gated on live CD45+CD3-CD19- cells, error bars indicate mean with 95% confidence interval. C) Representative flow cytometry […]
modulation of CD47 post DHODHi treatment.
(1 picture or pasted object on this page, not shown here)

SMILES: Nc1ncn([C@H]2C[C@H](O)[C@@H](CO)O2)c(=O)n1 [Decitabine, decitabine, reference compound]
- Survival, day of study at event (per animal) [1]: 40 days and 41 days and 43 days and 45 days and 47 days

- IC50 [2]: 378 nM
- IC50 [3]: 483 nM
- IC50 [4]: 899 nM
- IC50 [5]: 2000 nM
SMILES: Cc1c(-c2ccc(-c3ccccc3F)cc2)nc2ccc(F)cc2c1C(=O)O [BRQ, brequinar]
- IC50 [6]: 1180 nM
- % Live (Near-IR negative) ([7]; Pt.13, DMSO 72.92): 74.35%
- % Live (Near-IR negative) ([7]; Pt.14, DMSO 68.39): 69.22%
- % Live (Near-IR negative) ([7]; Pt.15, DMSO 61.7): 34.7%
- % Live (Near-IR negative) ([7]; Pt.16, DMSO 45.99): 44.41%
- % Live (Near-IR negative) ([7]; Pt.17, DMSO 29.84): 27.99%
- % Live (Near-IR negative) ([7]; Pt.18, DMSO 29.72): 24.94%
- % Live (Near-IR negative) ([7]; Pt.19, DMSO 75.66): 72.29%
- % Live (Near-IR negative) ([7]; Pt.20, DMSO 67.67): 44.18%
- CD38 MFI ([8]; Pt.13, DMSO 803.93): 685.5
- CD38 MFI ([8]; Pt.14, DMSO 15.61): 20.07
- CD38 MFI ([8]; Pt.15, DMSO 168): 776.17
- CD38 MFI ([8]; Pt.16, DMSO 274.9): 196.87
- CD38 MFI ([8]; Pt.17, DMSO 1637.55): 2098.18
- CD38 MFI ([8]; Pt.18, DMSO 74.26): 85.41
- CD38 MFI ([8]; Pt.19, DMSO 997.1): 1760
- CD38 MFI ([8]; Pt.20, DMSO 193.57): 223.42
- CD47 MFI ([9]; Pt.13, DMSO 1665.27): 1311.31
- CD47 MFI ([9]; Pt.14, DMSO 585.79): 845.1
- CD47 MFI ([9]; Pt.15, DMSO 1002.16): 847.29
- CD47 MFI ([9]; Pt.16, DMSO 1349.33): 1999.15
- CD47 MFI ([9]; Pt.17, DMSO 334.61): 370.44
- CD47 MFI ([9]; Pt.18, DMSO 869.17): 1024.38
- CD47 MFI ([9]; Pt.19, DMSO 364.4): 470.75
- CD47 MFI ([9]; Pt.20, DMSO 398.54): 499.32
